In EPA's ToxValDB 9.5:
Values joined by “and” are separate entries in the source; they are usually repeats but may differ in a detail not shown here. Identical values can stand only once.

Legend:
Oryctolagus sp. [1] = conditions: oral, gavage, New Zealand
Rattus norvegicus [2] = test system: Rattus norvegicus
Rattus norvegicus [3] = conditions: chronic; duration: 16 weeks; oral; diet; Kidney: Degeneration
Rattus norvegicus [4] = test system: Rattus norvegicus; remark: listed apart in the source
Rattus norvegicus [5] = conditions: subchronic, oral, gavage, M/F
Homo sapiens = conditions: clinical; duration: 1 days; inhalation; M/F; respiratory
Cavia porcellus = conditions: acute; Inhalation; Guinea Pig
Rattus norvegicus [6] = conditions: for LC50 / LD50: acute
Oryctolagus sp. [7] = conditions: developmental, M/F
Canidae [8] = conditions: oral; for NOAEL: subchronic, diet, Beagle
Canidae [9] = conditions: chronic; duration: 2 years; oral; diet; M/F; Dog Other; No adverse effects observed at the HDT
Oryctolagus sp. [10] = conditions: acute, dermal
Bird = conditions: oral, diet
[11] = chronic, oral, F, liver and kidney toxicity
[12] = chronic, duration: 118 weeks, oral, diet, F, Sprague-Dawley
[13] = chronic, duration: 118 weeks, oral, diet, M, Sprague-Dawley
[14] = developmental, duration: 20 days, oral, drinking water, Osborne-Mendel
[15] = reproduction developmental, duration: 27 weeks, oral, diet, Charles River Ceesarean albino, generation: F0
[16] = reproduction developmental, duration: 118 weeks, oral, diet, F, Sprague-Dawley
[17] = reproduction developmental, duration: 118 weeks, oral, diet, M, Sprague-Dawley
[18] = reproduction developmental, oral, diet, Crl:CD(SD)
[19] = oral, Reduced body weight gain (maternal), increased resorption, reduced body weight (fetal), delayed ossification

Structure (SMILES): ClC(Cl)(Cl)C(Cl)(Cl)Cl [Hexachloroethane]
- NOAEL (Oryctolagus sp. [1]; short-term, duration: 12 days, M, hepatic): 100 mg/kg-day
- NOAEL (Rattus norvegicus [2]; chronic, duration: 16 weeks, oral, diet, M/F, Fischer 344, hepatic): 1 mg/kg-day
- NOAEL (Rattus norvegicus [2]; reproduction developmental, duration: 10 days, inhalation, F, Sprague-Dawley, neurological): 465 mg/m3
- NOAEL (Rattus norvegicus [2]; subchronic, duration: 6 weeks, inhalation, M/F, Sprague-Dawley, neurological): 465 mg/m3
- NOAEL (Rattus norvegicus [3]): 1 mg/kg-day
- NOAEL (Rattus norvegicus [4]; subchronic, duration: 6 weeks, inhalation, M/F, Sprague-Dawley, neurotoxicity: tremors and ruffled pelt): 465 mg/m3
- NOEL (Rattus norvegicus [5]; duration: 13 weeks, Fischer 344, Deaths + Clinical Observation: Hyperactivity Convulsions + Body Weight Changes: decrease + Relative Organ Weight: Liver increase, Brain …): < 47 mg/kg-day

Structure (SMILES): [B] [Boron]
- NOAEL (Homo sapiens): 0.8 mg/m3
- NOAEL (Oryctolagus sp. [1]; developmental, duration: 13 days, M/F, developmental): 22 mg/kg-day

Structure (SMILES): CCCCOCCOCCOCOCCOCCOCCCC [Bis(butoxyethoxyethoxy)methane]
- LC50 (Mus musculus; acute, Inhalation, Swiss-Webster): > 200 µg/mL
- LC50 (Cavia porcellus): > 200 µg/mL
- LC50 (Rattus norvegicus [6]; Inhalation, Wistar): > 200 µg/mL
- LD50 (Rattus norvegicus [6]; dermal, occlusive, Sprague-Dawley): > 2000 mg/kg
- LD50 (Rattus norvegicus [6]; oral, Sprague-Dawley): > 2000 mg/kg
- NOAEL (Rattus norvegicus [6]; developmental, duration: 9 weeks, oral, gavage, Sprague-Dawley): 100 mg/kg-day
- NOAEL (Rattus norvegicus [6]; reproduction developmental, duration: 9 weeks, oral, gavage, F, Sprague-Dawley): 100 mg/kg-day
- NOAEL (Rattus norvegicus [6]; reproduction developmental, duration: 9 weeks, oral, gavage, Sprague-Dawley): 100 mg/kg-day
- NOAEL (Rattus norvegicus [6]; reproduction developmental, duration: 9 weeks, oral, gavage, Sprague-Dawley, generation: F0): 100 mg/kg-day
- NOAEL (Rattus norvegicus [6]; reproduction developmental, duration: 9 weeks, oral, gavage, Sprague-Dawley, generation: F1): 100 mg/kg-day

Structure (SMILES): CCc1ccccc1 [Ethylbenzene]
- LOAEL (Rattus norvegicus [2]; chronic, duration: 104 weeks, inhalation, M/F, Fischer 344, renal): 326 mg/m3
- NOAEL (Oryctolagus sp. [7]; inhalation, developmental toxicity): 434 mg/m3
- LOAEL (Rattus norvegicus [4]; [11]): 408 mg/kg-day
- NOEL (Rattus norvegicus [4]; [11]): 97.1 mg/kg-day and 136 mg/kg-day
- LOAEL (Rattus norvegicus [4]; developmental, inhalation, M/F, developmental toxicity): 4340 mg/m3
- NOAEL (Rattus norvegicus [5]; duration: 90 days, Wistar, Clinical Observation: Salivation Discolored urine + Functional Observational Battery: Decreased landing foot-splay + Body Weight Changes: …): 75 mg/kg-day

Structure (SMILES): COc1cc(S(=O)(=O)[O-])c(C)cc1N=Nc1c(O)ccc2cc(S(=O)(=O)[O-])ccc12.[Na+].[Na+]
- NOAEL (% diet) (Mus musculus; chronic, duration: 104 weeks, oral, diet, CD1): > 5.19
- LD50 (Canidae [8]; acute, gavage, Dog Other): > 5000 mg/kg
- LD50 (Rattus norvegicus [6]; oral, gavage, Sprague-Dawley): > 10000 mg/kg
- LOAEL (Rattus norvegicus [6]; [12]): 3600 mg/kg-day
- NOAEL (Rattus norvegicus [6]; [12]): 901 mg/kg-day
- LOAEL (Rattus norvegicus [6]; [13]): > 2830 mg/kg-day
- NOAEL (Rattus norvegicus [6]; [13]): 2830 mg/kg-day
- NOAEL (Rattus norvegicus [6]; developmental, duration: 19 days, oral, gavage, Osborne-Mendel): 1000 mg/kg-day
- LOAEL (Rattus norvegicus [6]; [14]): 546 mg/kg-day
- NOAEL (Rattus norvegicus [6]; [14]): 274 mg/kg-day
- LOAEL (Rattus norvegicus [6]; [15]): 51900 ppm
- NOAEL (Rattus norvegicus [6]; [15]): 13900 ppm
- LOAEL (Rattus norvegicus [6]; [16]): 3600 mg/kg-day
- NOAEL (Rattus norvegicus [6]; [16]): 901 mg/kg-day
- LOAEL (Rattus norvegicus [6]; [17]): > 2830 mg/kg-day
- NOAEL (Rattus norvegicus [6]; [17]): 2830 mg/kg-day
- NOAEL (Rattus norvegicus [6]; reproduction developmental, duration: 19 days, oral, gavage, F, Osborne-Mendel): 1000 mg/kg-day
- NOAEL (Rattus norvegicus [6]; reproduction developmental, duration: 20 days, oral, drinking water, F, Osborne-Mendel): 939 mg/kg-day
- LOAEL (Rattus norvegicus [6]; reproduction developmental, duration: 20 days, oral, drinking water, Osborne-Mendel, generation: F1): 546 mg/kg-day
- LOAEL (Rattus norvegicus [6]; [18]): 51900 ppm
- NOAEL (Rattus norvegicus [6]; [18]): 13900 ppm

Structure (SMILES): C#CCOS(=O)OC1CCCCC1Oc1ccc(C(C)(C)C)cc1 (stereo not given) [Propargite]
- NOEL (Canidae [9]): 22.5 mg/kg-day
- LEL (Oryctolagus sp. [7]; [19]): 6 mg/kg-day
- NOEL (Oryctolagus sp. [7]; [19]): 2 mg/kg-day

Structure (SMILES): CC(C)(C)c1cc(CCC(=O)OCCSCCOC(=O)CCc2cc(C(C)(C)C)c(O)c(C(C)(C)C)c2)cc(C(C)(C)C)c1O
- NOAEL (Canidae [8]; duration: 90 days): 74 mg/kg-day
- LD50 (Oryctolagus sp. [10]; occlusive, New Zealand): > 3000 mg/kg
- LC50 (Rattus norvegicus [6]; inhalation, whole body): > 6300 mg/m3
- LD50 (Rattus norvegicus [6]; oral, gavage): > 5000 mg/kg
- NOAEL (Rattus norvegicus [6]; chronic, duration: 93 days, oral, diet, F): 4.5 mg/kg-day
- NOAEL (Rattus norvegicus [6]; chronic, duration: 93 days, oral, diet, M): 4.4 mg/kg-day
- NOAEL (Rattus norvegicus [6]; subchronic, duration: 90 days, oral, diet): 960 mg/kg-day

Structure (SMILES): Cc1cc(C(C)(C)c2ccc(O)c(C)c2)ccc1O [3,3'-Dimethylbisphenol A]
- NOEL (Bird; short-term, duration: 1 month, M, Chicken, body weight): 0.3%
- LOEL (Bird; short-term, duration: 1 month, M, Chicken, mortality): 0.3%
- NOEL (Bird; subchronic, duration: 12 week, M/F, White leghorn chicken, mortality): 0.3%
- LOEL (Bird; subchronic, duration: 12 week, M, White leghorn chicken, body weight): 0.3%
- NOEL (Bird; subchronic, duration: 12 week, M, White leghorn chicken, body weight + mortality): 0.3%

Structure (SMILES): CC(C)CCCCCCOC(=O)CCCCC(=O)OCCCCCCC(C)C [Diisononyl adipate]
- NOAEL (Canidae [8]; duration: 13 weeks): 274 mg/kg-day
- LD50 (Oryctolagus sp. [10]): > 3160 mg/kg
- LD50 (Rattus norvegicus [6]; oral, gavage): > 10000 mg/kg
- NOAEL (Rattus norvegicus [6]; subchronic, duration: 13 weeks, oral, diet): 500 mg/kg-day
